# Measurements published in patent US4390526A, “Pharmaceutical agents for the treatment of sickle cell disease” (Yeda Research & Development Co. Ltd., priority 1979, dated 1983).
# Where a SMILES comes first, the peptide text is derived from it.
# Columns and labels:
# erythrocytes [1] = conditions: literature values, Table II; cited from earlier work
# [2] = test system: erythrocytes of a sickle cell disease patient; experiment: Inhibition of sickling; assay type: cell-based, human; conditions: 30 minutes, deoxygenated with sodium metabisulphite
# Experimental: A venous blood sample was obtained from the anticubital vein of a sickle cell disease patient and washed several times with phosphate buffer saline, pH 7.2, consisting of 145.4 mM NaCl, 4.0 mM KCl, 1.65 mM Na2 HPO4, 0.16 mM KH2 PO4, 0.01 mM MgCl2 and 11.1 mM glucose. The buffy coats were removed by aspiration. […] The mixture was well stoppered, incubated at 37° C. and swirled at about 100 cycles per minute in a controlled environment incubator. The standard control consisted of a 300 μl of a 20% cell suspension in the buffer in which the novel compound was dissolved. After an incubation period, 20 μl of the treated cell suspension was deoxygenated with 20 μl of 2.0% sodium metabisulphite or with nitrogen gas and examined with a Zeiss microscope.
# […] They were deoxygenated with sodium metabisulphite and examined under a Zeiss microscope.
# purified HbS = biological target: T1, purified HbS (Homo sapiens, UniProt P68871, E7V); experiment: Determination of antigelling property (modified method of Bookchin et al.); assay type: biochemical; conditions: deoxygenated with sodium dithionite, 37° C.; antigelling = fluid state for more than 20 minutes
# T1 construct: 150 μl of 35% of purified HbS were added and vortexed; from tissue
# Experimental: The antigelling property of the said new class of compounds was determined by a modified method of Bookchin et al. (1967); (see Bookchin et al, J. Biol. Chem., 242, 248-255, 1967). To 10 μl of a solution of the said new class of compounds in a micro test tube, at about 37° C., 150 μl of 35% of purified HbS were added and vortexed. 15 microliters of a 10% sodium dithionite in 0.05 M phosphate buffer, pH 7.2 were added. The mixture was thoroughly mixed and flushed with nitrogen and quickly stoppered. The micro test tube was incubated at 37° C. for 30 minutes and then transferred to 0° C. for 10 minutes and then returned to 37° C. for 30 minutes. A compound was defined as having antigelling properties when the HbS inhibition mixture remained in the fluid state for a period of more than 20 minutes at 37° C.
# erythrocytes [3] = experiment: Transport of the novel compounds into erythrocytes; assay type: cell-based, human
# Experimental: As sickle cell disease is caused by a defect of the erythrocytes, in order to study transport of a therapeutic agent for the treatment of the disease into erythrocytes, erythrocytes and no other cells must be used for the transport studies.
# Washed erythrocytes were prepared by the method described in Example 2 and used for transport studies. The novel class of compounds were radioactively labelled, using for example, [^14 C]-L-Phe.
SMILES,Effective Concentration In Vitro (antisickling) (erythrocytes [1]),Percentage of Normal Cells ([2]; 3 mM of the compound),further results
O=CC(O)CO (racemic) [DL--Glyceraldehyde],20 mM,–,–
"Br.O=C(OCc1ccc([N+](=O)[O-])cc1)[C@@H]1CCCN1 [Compound 7, L--Pro--OBz (pNO2).HBr]",–,80%,–
"CCCCCCCCCCCCCCCCCCOC(=O)[C@@H](N)Cc1ccc(O)cc1.Cl [Compound 17, L--Tyr--O Octadecyl.HCl, reference compound]",–,10%,–
"Cl.N[C@@H](Cc1ccc(O)cc1)C(=O)OCc1ccccc1 [Compound 2, L--Tyr--OBz.HCl]",–,–,Percentage of Normal Cells ([2]; 0.5 mM of compound): 70%
NC(N)=O [Urea],100 mM,–,–
"Cl.N[C@H](Cc1ccccc1)C(=O)OCc1ccccc1 [Compound 16, D--Phe--OBz.HCl]",–,90%,moles of compound to one mole of HbS at which gelation of HbS is inhibited (purified HbS): 6 moles to one mole HbS
"Cc1ccc(S(=O)(=O)O)cc1.NC(Cc1c[nH]cn1)C(=O)OCc1ccc([N+](=O)[O-])cc1 [Compound 8, L--His--OBz (pNO2) pTS]",–,70%,–
NCCSSCCN [Cystamine],220 mM,–,–
"Br.CC(NC(=O)C(N)Cc1ccccc1)C(=O)OCc1ccccc1 [Compound 14, L--Phe--L--Ala--OBz.HBr]",–,70%,–
O=C(Nc1ccccn1)c1ccccc1.O=C(O)c1ccccc1 [2(Benzoyl amino) pyridinium benzoate],50 mM,–,–
CC(=O)Oc1c(Br)cc(Br)cc1C(=O)O [Dibromo aspirin],5 mM,–,–
"CC(C)[C@H](N)C(=O)OCc1ccccc1 [Compound 12, L--Val--OBz]",–,50%,–
"CC(C)C[C@H](N)C(=O)OCc1ccccc1 [Compound 13, L--Leu--OBz]",–,55%,–
"Br.NCC(=O)N[C@@H](Cc1ccccc1)C(=O)OCc1ccccc1 [Compound 10, L--Gly--L--Phe--OBz.HBr] (HELM PEPTIDE1{G.F.[c1ccc(CO[*:1])cc1]}$$$$V2.0)",–,90%,–
"Cl.O=C(OCc1ccccc1)[C@@H]1CCCN1 [Compound 4, L--Pro--OBz.HCl]",–,60%,–
"CC1(C)CCc2cc(CCCC(=O)O)ccc2O1 [3,4-dihydro-2,2-dimethyl 2H-1 Benzopyridirium-6-butyric acid]",10 mM,–,–
COC(=N)CCCCC(=N)OC [Dimethyl Adipimidate],10 mM,–,–
N#C[O-].[K+] [Potassium Cyanate],100 mM,–,–
"Br.N[C@@H](Cc1ccccc1)C(=O)OCc1ccc([N+](=O)[O-])cc1 [Compound 6, L--Phe--OBz (pNO2).HBr]",–,90%,–
"Br.C[C@H](N)C(=O)N[C@@H](Cc1ccccc1)C(=O)OCc1ccccc1 [Compound 9, L--Ala--L--Phe--OBz.HBr]",–,90%,–
"N[C@@H](Cc1ccccc1)C(=O)O [Compound 18, L--Phe, reference compound]",–,0%,–
"Cl.N[C@@H](Cc1c[nH]c2ccccc12)C(=O)OCc1ccccc1 [Compound 3, L--Try--OBz.HCl]",–,–,moles of compound to one mole of HbS at which gelation of HbS is inhibited (purified HbS): 4 moles to one mole HbS; Percentage of Normal Cells ([2]; 0.5 mM of compound): 95%
"N[C@@H](Cc1ccccc1)C(=O)NCc1ccccc1 [Compound 11, L--Phe--Benzyl amide]",–,70%,–
"Br.NCCCC[C@H](NC(=O)[C@@H](N)Cc1c[nH]c2ccccc12)C(=O)OCc1ccccc1 [Compound 15, L--Try--Lys--OBz.HBr] (HELM PEPTIDE1{W.K.[c1ccc(CO[*:1])cc1]}$$$$V2.0)",–,70%,–
"Cl.N[C@@H](Cc1ccccc1)C(=O)OCc1ccccc1 [Compound 1, L--Phe--OBz.HCl]",–,90%,"moles of compound to one mole of HbS at which gelation of HbS is inhibited (purified HbS): 6 moles to one mole HbS; transport into erythrocytes (erythrocytes [3]): rapidly transported into erythrocytes by a carrier mediated process; Michaelis constant for transport (erythrocytes [3]; 14C-labelled compound, washed erythrocytes): 0.175 mM; PERCENT OF INCORPORATION (erythrocytes [3]; TIME 0): 0%; PERCENT OF INCORPORATION (erythrocytes [3]; TIME 10): 30%; PERCENT OF INCORPORATION (erythrocytes [3]; TIME 20): 70%; PERCENT OF INCORPORATION (erythrocytes [3]; TIME 30): 90%; PERCENT OF INCORPORATION (erythrocytes [3]; TIME 45): 100%; PERCENT OF INCORPORATION (erythrocytes [3]; TIME 60): 90%"
Cc1ncc(CO)c(C=O)c1O [Pyridoxal],20 mM,–,–
